Data set [1] in a line: Microsomal stability, rat. It is filed as in vitro ADME. As to the method: (§1) Microsomal and plasma stability of Compound A was investigated. The following table indicates the percent of Compound A remaining after 60 minutes.
(§2) Microsomal and plasma stability of Compound B was investigated. The following table indicates the percent of Compound B remaining after 60 minutes.

A short description of data set [2]: Plasma protein binding, rat. The class given is in vitro ADME. The following applies: read-out: plasma protein binding (% bound) (converted). As to the method:
(§3) Unbound drug concentration in the brain was also investigated, and plasma protein binding assays were conducted. The following table (% bound) indicates results for Compound A.
(§4) Unbound drug concentration in the brain was also investigated, and plasma protein binding assays were conducted. The following table (% bound) indicates results for Compound B.

Data set [3] is described as follows: Plasma protein binding, human. The following applies: read-out: plasma protein binding (% bound) (converted). The class given is in vitro ADME. As to the method:
as §3, §4

In a further data set the target is NMDAR2D (Homo sapiens, UniProt O15399). Nature of the data set: Potentiation of [3H]MK-801 binding, NMDAR2D. The following applies: for Conclusion / % 1 mM Glycine: NMDAR2D binding profile; for % 1 mM Glycine: relative to 1 mM glycine; for potentiation of [3H]MK-801 binding, subtype preference in words: NR2D, FIG. 2 / FIG. 6. On the set-up: species or system rat. As to the method:
Assays were conducted as described by Moskal et al., “GLYX-13: a monoclonal antibody-derived peptide that acts as an N-rnethyl-D-aspartate receptor modulator,” Neuropharmacology, 49, 1077-87, 2005. The potentiation of [^3H]MK-801 binding (5 nrM; 22.5 Ci/mmol) to well washed rat cortical membranes (200 μg) was measured under non-equilibrium conditions (15 min @ 25° C.) in the presence of increasing concentrations of Compound A.
Assays were conducted as described above in Example 5, by Moskal et al. (2005).

Data set [4] is described as follows: Bioavailability and CSF/brain/plasma distribution after PO dosing. The conditions noted are these: for Kp / bioavailability: Sprague Dawley, rat, PO administration (Compound A 10 mg/kg); for bioavailability: plasma, read-out: Bioavailablity (% F); for oral bioavailability, in words / proportion able to get to the CSF and brain, in words: comparative statement, comparator not named. The class given is in vivo, Sprague Dawley rats. As to the method: The bioavailablity of Compound A was investigated following PO administration. CSF, brain and plasma samples were analyzed following dosing with compound A (10 mg/kg). The following table indicates the bioavailablity and CSF/plasma and brain/plasma ratios.
Sprague Dawley rats were dosed intravenously with 2 mg/kg of Compound A. A second group of Sprague Dawley rats was dosed per os with 10 mg/kg of compound A. Plasma samples were drawn over a 24 h period and analyzed for Compound A.
In another experiment, Sprague Dawley rats were dosed per os with 10 mg/kg of Compound A. Plasma, brain, and CSF samples were analyzed at various time points over a 24 hour period. […]

The subject of the next data set is rats. Description: Positive emotional learning (PEL) test, rat 50-kHz ultrasonic vocalizations (USVs). The class given is in vivo. As to the method:
Experiments were conducted as described in Burgdorf et al., “The effect of selective breeding for differential rates of 50-kHz ultrasonic vocalizations on emotional behavior in rats,” Devel. Psychobiol., 51:34-46 (2009). Rat 50-kHz ultrasonic vocalization (hedonic USVs) is a validated model for the study of positive affective state and is best elicited by rough-and-tumble play.
The PEL assay measures the acquisition of positive (hedonic) 50-kHz ultrasonic vocalizations (USVs) to a social stimulus, heterospecific rough and tumble play stimulation. Heterospecific rough-and-tumble play stimulation was administered by the experimenter's right hand. […] High frequency ultrasonic vocalizations (USVs) were recorded and analyzed by sonogram with Avasoft SASlab Pro (Germany) as previously described by Burgdorf et al., “Positive emotional learning is regulated in the medial prefrontal cortex by GluN2B-containing NMDA receptors,” Neuroscience, 192:515-523 (2011). Frequency modulated 50-kHz USVs that occurred during each of the no-stimulation periods were quantified to measure PEL. […] Positive emotional learning was measured during the conditioned stimulus (CS) trials preceding the tickle unconditioned stimulus (UCS) trials. […] Running speed for animals to self administer tickling at the end of the 3 min session was also measured. […]

The target of a further data set is NMDAR2A (Homo sapiens, UniProt Q12879). Nature of the data set: Potentiation of [3H]MK-801 binding, NMDAR2A. On the set-up: species or system rat. The following applies: NMDAR2A binding profile, wild-type.
In the next data set the target is NMDAR2B (Homo sapiens, UniProt Q13224). Nature of the data set: Potentiation of [3H]MK-801 binding, NMDAR2B. The following applies: for % 1 mM Glycine: relative to 1 mM glycine. More on the design: species or system rat.
NMDAR2B, sequence (Q13224 27-1484, species assumed, other chains not shown): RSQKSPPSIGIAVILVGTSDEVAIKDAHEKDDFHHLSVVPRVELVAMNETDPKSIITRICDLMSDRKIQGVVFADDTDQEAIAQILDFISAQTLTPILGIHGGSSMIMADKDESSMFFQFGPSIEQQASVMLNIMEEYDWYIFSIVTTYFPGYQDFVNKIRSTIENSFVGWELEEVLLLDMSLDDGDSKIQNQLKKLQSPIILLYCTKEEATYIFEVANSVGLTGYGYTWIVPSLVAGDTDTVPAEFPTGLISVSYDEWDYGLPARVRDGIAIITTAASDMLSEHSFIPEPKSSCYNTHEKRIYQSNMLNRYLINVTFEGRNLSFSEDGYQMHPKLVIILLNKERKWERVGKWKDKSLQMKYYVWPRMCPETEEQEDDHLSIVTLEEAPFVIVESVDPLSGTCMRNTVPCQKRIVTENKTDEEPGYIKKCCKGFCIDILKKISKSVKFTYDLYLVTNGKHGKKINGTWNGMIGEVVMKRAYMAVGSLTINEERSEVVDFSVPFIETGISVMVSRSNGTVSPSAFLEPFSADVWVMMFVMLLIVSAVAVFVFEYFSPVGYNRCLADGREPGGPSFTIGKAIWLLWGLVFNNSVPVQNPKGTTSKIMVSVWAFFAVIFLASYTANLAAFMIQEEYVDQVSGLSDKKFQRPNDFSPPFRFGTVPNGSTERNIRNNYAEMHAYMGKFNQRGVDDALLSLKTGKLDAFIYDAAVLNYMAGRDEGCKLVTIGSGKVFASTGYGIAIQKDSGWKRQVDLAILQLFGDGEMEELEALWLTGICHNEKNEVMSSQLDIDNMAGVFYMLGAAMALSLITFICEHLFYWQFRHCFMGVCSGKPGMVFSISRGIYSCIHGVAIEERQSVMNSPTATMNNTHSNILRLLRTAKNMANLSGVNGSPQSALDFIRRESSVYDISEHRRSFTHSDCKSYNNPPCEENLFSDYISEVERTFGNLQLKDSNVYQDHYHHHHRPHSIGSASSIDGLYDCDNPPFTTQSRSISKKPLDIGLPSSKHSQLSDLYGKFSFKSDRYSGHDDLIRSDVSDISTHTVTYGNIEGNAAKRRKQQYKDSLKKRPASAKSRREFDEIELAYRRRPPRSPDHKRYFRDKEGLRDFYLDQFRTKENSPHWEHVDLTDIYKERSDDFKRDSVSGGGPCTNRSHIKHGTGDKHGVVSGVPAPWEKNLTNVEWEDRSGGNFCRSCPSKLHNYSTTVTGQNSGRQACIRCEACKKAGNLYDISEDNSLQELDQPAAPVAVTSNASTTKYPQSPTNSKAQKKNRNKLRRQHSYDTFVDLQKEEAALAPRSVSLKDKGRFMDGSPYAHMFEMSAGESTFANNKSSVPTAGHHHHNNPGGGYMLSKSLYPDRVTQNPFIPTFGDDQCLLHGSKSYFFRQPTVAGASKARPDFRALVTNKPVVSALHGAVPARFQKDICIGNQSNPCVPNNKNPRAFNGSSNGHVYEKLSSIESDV
Another data set can be described thus: Plasma stability, human. The class given is in vitro ADME. The procedure:
as §1, §2

A further data set addresses NMDAR2C (Homo sapiens, UniProt Q14957). Description: Potentiation of [3H]MK-801 binding, NMDAR2C. More on the design: species or system rat. The conditions noted are these: for % 1 mM Glycine: relative to 1 mM glycine.
Setting [5] is: CSF/plasma, read-out: CSF/plasma ratio.
Setting [6] is: brain/plasma, read-out: Brain/plasma ratio.

Read-outs that look alike come from different tables or passages of the source.

NMDAR2C, sequence (Q14957 20-1233, species assumed, other chains not shown): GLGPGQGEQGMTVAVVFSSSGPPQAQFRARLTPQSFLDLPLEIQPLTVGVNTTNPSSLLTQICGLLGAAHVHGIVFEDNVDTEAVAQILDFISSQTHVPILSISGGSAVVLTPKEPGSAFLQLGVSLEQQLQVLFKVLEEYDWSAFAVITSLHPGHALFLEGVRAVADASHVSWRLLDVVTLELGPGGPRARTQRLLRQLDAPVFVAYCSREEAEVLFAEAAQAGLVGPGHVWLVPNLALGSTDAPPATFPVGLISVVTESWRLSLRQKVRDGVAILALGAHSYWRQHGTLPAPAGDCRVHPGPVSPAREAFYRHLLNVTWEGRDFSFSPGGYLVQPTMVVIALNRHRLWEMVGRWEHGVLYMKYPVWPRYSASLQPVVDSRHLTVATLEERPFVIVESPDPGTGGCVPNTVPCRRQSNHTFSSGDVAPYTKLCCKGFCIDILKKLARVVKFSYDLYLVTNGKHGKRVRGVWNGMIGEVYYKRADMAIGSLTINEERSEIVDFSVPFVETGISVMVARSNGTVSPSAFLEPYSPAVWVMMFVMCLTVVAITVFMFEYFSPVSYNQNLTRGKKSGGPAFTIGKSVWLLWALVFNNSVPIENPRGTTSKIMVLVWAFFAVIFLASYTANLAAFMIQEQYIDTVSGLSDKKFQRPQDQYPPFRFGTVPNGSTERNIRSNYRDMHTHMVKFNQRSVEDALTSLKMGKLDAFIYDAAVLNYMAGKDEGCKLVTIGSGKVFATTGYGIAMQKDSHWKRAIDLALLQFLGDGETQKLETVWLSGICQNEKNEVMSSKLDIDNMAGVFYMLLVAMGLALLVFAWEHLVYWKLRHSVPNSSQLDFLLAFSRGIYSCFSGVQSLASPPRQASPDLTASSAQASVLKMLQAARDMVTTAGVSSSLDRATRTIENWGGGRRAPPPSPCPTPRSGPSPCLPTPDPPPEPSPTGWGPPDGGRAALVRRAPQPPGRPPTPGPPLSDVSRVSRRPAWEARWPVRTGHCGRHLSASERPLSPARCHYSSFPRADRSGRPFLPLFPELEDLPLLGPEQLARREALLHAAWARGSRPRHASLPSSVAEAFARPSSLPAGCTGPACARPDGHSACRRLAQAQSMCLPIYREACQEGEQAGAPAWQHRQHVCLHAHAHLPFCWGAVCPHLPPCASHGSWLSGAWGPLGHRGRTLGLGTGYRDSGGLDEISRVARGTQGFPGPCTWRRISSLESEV
NMDAR2D, sequence (O15399 28-1336, species assumed, other chains not shown): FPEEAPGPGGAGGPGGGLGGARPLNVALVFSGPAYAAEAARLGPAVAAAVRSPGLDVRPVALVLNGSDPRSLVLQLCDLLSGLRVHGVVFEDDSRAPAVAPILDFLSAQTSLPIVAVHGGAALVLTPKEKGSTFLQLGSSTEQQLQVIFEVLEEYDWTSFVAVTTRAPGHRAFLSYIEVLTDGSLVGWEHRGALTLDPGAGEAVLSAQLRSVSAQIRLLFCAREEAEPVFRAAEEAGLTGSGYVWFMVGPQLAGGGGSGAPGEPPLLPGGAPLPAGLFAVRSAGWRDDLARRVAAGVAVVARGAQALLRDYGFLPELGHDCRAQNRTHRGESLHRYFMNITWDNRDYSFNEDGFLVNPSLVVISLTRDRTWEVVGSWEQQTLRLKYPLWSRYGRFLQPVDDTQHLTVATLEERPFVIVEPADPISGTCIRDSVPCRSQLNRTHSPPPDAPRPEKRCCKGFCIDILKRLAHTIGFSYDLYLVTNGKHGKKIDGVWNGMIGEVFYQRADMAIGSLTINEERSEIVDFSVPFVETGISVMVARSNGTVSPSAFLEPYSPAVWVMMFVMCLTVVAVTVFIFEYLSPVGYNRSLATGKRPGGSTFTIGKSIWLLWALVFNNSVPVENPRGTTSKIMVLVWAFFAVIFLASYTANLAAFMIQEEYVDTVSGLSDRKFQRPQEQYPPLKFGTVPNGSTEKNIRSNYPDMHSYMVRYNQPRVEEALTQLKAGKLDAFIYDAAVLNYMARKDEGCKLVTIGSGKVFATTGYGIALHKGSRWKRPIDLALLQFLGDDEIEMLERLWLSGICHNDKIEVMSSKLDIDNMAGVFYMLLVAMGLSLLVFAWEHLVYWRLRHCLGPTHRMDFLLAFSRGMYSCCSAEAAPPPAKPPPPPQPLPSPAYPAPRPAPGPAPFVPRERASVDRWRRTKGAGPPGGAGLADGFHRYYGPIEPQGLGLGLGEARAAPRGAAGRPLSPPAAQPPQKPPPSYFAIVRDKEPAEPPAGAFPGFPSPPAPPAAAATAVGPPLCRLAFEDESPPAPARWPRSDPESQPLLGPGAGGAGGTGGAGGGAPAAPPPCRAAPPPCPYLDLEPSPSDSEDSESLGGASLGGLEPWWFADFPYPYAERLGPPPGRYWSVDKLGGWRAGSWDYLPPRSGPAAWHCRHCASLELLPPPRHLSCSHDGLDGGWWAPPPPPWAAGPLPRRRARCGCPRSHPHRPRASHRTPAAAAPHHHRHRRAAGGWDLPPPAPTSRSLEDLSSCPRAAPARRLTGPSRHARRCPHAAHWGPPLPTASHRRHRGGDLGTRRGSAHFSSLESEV

Broadly, the EC50 is the concentration giving half of the maximal effect. `CC(C)CN1CCC[C@]12CN([C@H](C(N)=O)[C@@H](C)O)C2=O` [Compound A, (2S,3R)-3-hydroxy-2-((R)-5-isobutyl-1-oxo-2,5-diazaspiro[3.4]octan-2-yl)butanamide]: the “Microsomal stability, percent remaining after 60 minutes” value in [1] is listed as 65%. The values for the fraction unbound in [2] and in [3] were 0.701 and 0.741, respectively. For the same compound, the Conclusion entry on NMDAR2D was “WT2D no”; on NMDAR2B (NMDAR2B binding profile) it was “WT2B agonist”; on NMDAR2C (NMDAR2C binding profile), “WT2C agonist”. For the same compound, the entries for the “% 1 mM Glycine” value at NMDAR2D, at NMDAR2B (NMDAR2B binding profile) and at NMDAR2C (NMDAR2C binding profile) were 0%, 68.22% and 66.21%, respectively. Moreover, the “potentiation of [3H]MK-801 binding, subtype preference in words” value on NMDAR2D is reported as “no binding to NR2D”. The Kp was found to be 0.65 in data set [4] (setting [5]) and 0.19 in [4] (setting [6]). In data set [4], the bioavailability was 42%. Also, the “oral bioavailability, in words” value in data set [4] is “lower oral bioavailability”. In [4], the “proportion able to get to the CSF and brain, in words” value was “a higher proportion is able to get to the CSF and brain”. Besides, in the data set on rats (administered one hour prior to PEL testing), the “positive emotional learning as measured by rat USVs” value is on record as “increases positive emotional learning”. The EC50 at NMDAR2A was 0.00457 nM; at NMDAR2B (NMDAR2B binding profile, wild-type) it was 3.09 nM; on NMDAR2C (NMDAR2C binding profile, wild-type), 1.51 nM. Besides, the “Plasma stability, percent remaining after 60 minutes” value in the data set “Plasma stability, human” was 100%.
`CC(C)CN1CCC[C@@]12CN([C@H](C(N)=O)[C@@H](C)O)C2=O` [Compound B, (2S,3R)-3-hydroxy-2-((S)-5-isobutyl-1-oxo-2,5-diazaspiro[3.4]octan-2-yl)butanamide]: the “Microsomal stability, percent remaining after 60 minutes” value in data set [1] is given as 81%. Further, the fraction unbound is 0.802 in data set [2] and 0.712 in data set [3]. The figures for the Conclusion entry at NMDAR2D, at NMDAR2B (NMDAR2B binding profile) and at NMDAR2C (NMDAR2C binding profile) were “agonist”, “WT2B agonist” and “WT2C agonist”, respectively. The entries for the “% 1 mM Glycine” value on NMDAR2D, on NMDAR2B (NMDAR2B binding profile) and on NMDAR2C (NMDAR2C binding profile) were 66.21%, 49.02% and 85.37%, respectively. For the same compound, the “potentiation of [3H]MK-801 binding, subtype preference in words” value at NMDAR2D was “highly NR2B and NR2D preferring”; on NMDAR2B (NR2B, FIG. 6), “highly NR2B and NR2D preferring”; on NMDAR2C (NR2C, FIG. 6) it was “lower potency in NR2A and NR2C”. Also, the Kp amounted to 0.7 in [4] (setting [5]) and 0.18 in [4] (setting [6]). Further, the bioavailability in data set [4] was found to be 38%. For the same compound, in data set [4], the “oral bioavailability, in words” value is “lower oral bioavailability”. For the same compound, the “proportion able to get to the CSF and brain, in words” value in data set [4] is “a higher proportion is able to get to the CSF and brain”. In the data set on rats (rat, in vivo), the “positive emotional learning in the rat USVs test” value is “increases positive emotional learning”. Also, the concentration for a half-maximal effect (EC50) at NMDAR2A is 0.977 nM. Besides, the “Plasma stability, percent remaining after 60 minutes” value in “Plasma stability, human” is reported as 100%.
